# According to patent US12274703B2, “Compositions and methods of treatment for neurological disorders comprising a dementia” (Gliapharm SA, priority 2017, dated 2025):
# Read-outs that look alike come from different tables or passages of the source.
# Columns and labels:
# astrocytes = test: Extracellular lactate quantification; type: cell-based, mouse; settings: Mus musculus, Astrocyte; Appendix II; lactate secretion; read-out: EC50
# Protocol: (§1) Primary cultures of cerebrocortical astrocytes were obtained from 1-2-day-old OF1 mouse pups (Charles River Laboratories). Briefly, cortices were isolated and minced in small pieces under a dissecting microscope. The cells were incubated for 30 min at 37° C. in a solution containing 20 U/ml of papain enzyme (Worthington Biochemical), L-cysteine 1 mM (Sigma), and 10 kU/ml DNase I (Worthington Biochemical) for an enzymatic dissociation. Papain activity was stopped by the addition of fetal calf serum (FCS) to the solution, and a single-cell suspension was then obtained by mechanical dissociation, which consisted in cells trituration in a DMEM (D7777, Sigma-Aldrich) medium (supplemented with 44 mm NaHCO3, and 10 ml/L antibiotic/antimycotic solution) containing 10% FCS. The cells were seeded at an average density of 6×10^4 cells/cm^2 in poly-D-lysine-coated 96, 12 or 6-well culture plates, depending on their use, and incubated at 37° C. in a humidified atmosphere containing 5% CO2/95% air. Culture medium was renewed twice per week. Cells were stimulated and harvested between DIV14 and DIV17, when confluence and cell growth were optimal.
# Secretion of L-lactate was determined in the extracellular medium of 96-well plated astrocytes after 90 min stimulation (at 37° C., in 5% CO2/95% air conditions) with the drug of interest. The stimulation medium was composed of D5030 medium (completed with D-glucose 5 mM and 44 mM sodium bicarbonate) for 90 min in concentrations ranging from 0 to 100 μM.
# Briefly, 200 μl of a Glycine (Sigma)-Semicarbazide (Acros) 0.2M pH 10 buffer containing 3 mM NAD (Roche) and LDH 14 U/ml (Roche) was added to each well of a 96-well plate containing 30 μl aliquots complemented with 20 μl fresh complete D5030 medium. Samples were incubated at 37° C. for 1 h. After samples cooled down at room temperature, the fluorescence intensity (340 nm excitation/450 nm emission) that represents the amount of NADH produced was measured, and lactate concentration values were determined from a standard curve of L-lactate.
# Statistical analysis consisted in ANOVA followed by Fisher LSD post-hoc test for pair-wise comparisons.
# Levels of lactate secreted by astrocytes were measured in the extracellular medium at 90 min after stimulation with hits (molecules) from the CDC54K library.
# primary astrocytes = test: High throughput screening for lactate secretion: acidification of extracellular medium (SNARF5); type: cell-based, mouse; settings: Mus musculus, Astrocyte, 1.5 h, 10 uM, 90 min
# Protocol: as §1
# Secretion of lactate in a high-throughput screening (HTS) fashion was measured indirectly through the acidification of extracellular medium. To this end, primary astrocytes grown in 96-well plates for 17 days were stimulated with the compounds as listed herein.
# After washing the cells twice with stimulation medium (DMEM (D5030, Sigma), 3 mM NaHCO3 and 5 mM Glucose) at 37° C., cells were stimulated with the compounds at a final concentration of 10 uM (1% DMSO final) in 50 ul per well of stimulation medium supplemented with 10 uM of the extracellular pH sensor SNARF-5F %-(AND-6)-CAR (Life Technologies Corporation). Each compound was tested in two different plates for duplicates.
# After 90 min stimulation, fluorescence was read at exc. (excitation) 480 nm/emm. (emission) 580 nm and at exc 480 nm/emm. 630 nm. The ratio of fluorescence between 630 nm and 580 emission values, which represents extracellular pH, was calculated.
# In each plate, 8 wells were used for negative controls (DMSO) and 8 wells were used for positive controls (CCCP 2 uM in DMSO). Z prime values were calculated for each of the plates tested and values <0 were discarded.
# The average and SD of compounds' values tested in duplicates were calculated, and compound was noted as HIT when the difference between compound's average and negative control's average was greater than three times the sum of compound's SD and negative controls' SD. Only scores greater than 40% were considered as lead hits for the CDC54K library; for the remaining libraries, all hits were considered. Scores are calculated as the % of activity compared to the positive control in each plate (which is 100%).
# Primary screening hits were cherry picked on new plates and confirmed for SNARF5 effect, after having discarded those compounds that are fluorescent (exc. 480 nm/emm. 580 nm or 630 nm) before stimulation. Extracellular medium was next analyzed for extracellular lactate quantification for secondary screening.
# Identification of lactate-enhancing drugs with high throughput screening (HTS) experiments on astrocytes primary cultures using extracellular pH dye (SNARF5F 5-(and 6)-carboxylic acid) for 90 min. The procedure is described in Material and Methods (2. Cell culture, 2.1. HTS for lactate secretion and 2.2. Extracellular lactate quantification).
# The procedure was performed as follows: • Primary screening: acidification of the extracellular medium • Primary screening confirmation: acidification of the extracellular medium, removal of compounds with fluorescent activity at exc. 480 nm/emm. 580 nm or 630 nm. • Secondary screening: dosage of extracellular lactate
# [1] = Appendix I, primary screening, relative to positive control, read-out: Score
# [2] = Prestwick hits, activity relative to positive control CCCP 2 uM, read-out: Score
# [3] = Prestwick hits, relative to positive control CCCP 2 uM, read-out: HTS Score (lactate)
Compound,Emax at 10 µM (primary astrocytes; [1]) [%],also measured
CC(=O)N1CCc2cc(S(=O)(=O)NCC(C)c3ccccc3)ccc21 (centres unmarked) [T5707230],,EC50 (astrocytes): 4.88 µM
COc1ccc(S(=O)(=O)Nc2ccc(N3CCCCS3(=O)=O)cc2)cc1C [F2794-0128],,EC50 (astrocytes): 9.85 µM
CN(C)S(=O)(=O)c1cccc(C(=O)Nc2ccc(Oc3ccccc3)cc2)c1 [T5393500],,EC50 (astrocytes): 3.43 µM
CCN(CC)C(=O)c1nc(CNC(=O)c2ccc3ccccc3n2)oc1C [T993-1787],,EC50 (astrocytes): 7.99 µM
COc1ccc(NS(=O)(=O)c2ccc(N3CCCCS3(=O)=O)cc2)cc1 [G508-0015],,EC50 (astrocytes): 4.83 µM
CC(=O)N1CCCc2cc(S(=O)(=O)Nc3ccc(OC(F)(F)F)cc3)ccc21 [G855-0183],,EC50 (astrocytes): 6 µM
COc1ccc(C(C)NC(=O)c2cc(=O)c3ccccc3o2)cc1F (centres unmarked) [T5710343],,EC50 (astrocytes): 6.31 µM
c1ccc(CN2CCOCC2)c(CNc2ncnc3ccsc23)c1 [T5790476],,EC50 (astrocytes): 3.98 µM
CCc1ccccc1NC(=O)CN(C)c1ncnc2c1oc1ccccc12 [T5712071],,EC50 (astrocytes): 1.14 µM
Cc1nc2ncnn2c(NCc2ccco2)c1C [Z606-8298],,EC50 (astrocytes): 4.89 µM
CCN1C(=O)c2cccc3c(S(=O)(=O)Nc4ccc(OC)cc4OC)ccc1c23 [T5477696],,EC50 (astrocytes): 5.1 µM
c1ccc(C(Nc2ncnc3sccc23)C2CC2)cc1 (centres unmarked) [T6016487],126,
CCOc1ccc(C2(O)C[N+](c3ccccc3C)=C3CCCCN32)cc1 (centres unmarked) [F0524-0511],70,
Cc1cccc([N+]2=C3CCCCCN3C(O)(c3ccc(F)cc3)C2)c1 (centres unmarked) [K404-0910],72.6,
CCOc1ccc(C2(O)C[N+](c3ccccc3OC)=C3CCCCN32)cc1 (centres unmarked) [K404-0673],93.1,
CC(=O)N1CCCc2cc(S(=O)(=O)NCc3ccc(Cl)cc3)ccc21 [G855-0033],34.7,
CCOc1ccc(-c2cc3n(n2)CCCN(C(=O)c2cccnc2)C3)cc1 [T200-0707],16.7,
COc1ccc(C2(O)C[N+](c3ccccc3C)=C3CCCCN32)cc1 (centres unmarked) [F0524-0507],61.2,
O=C(Cc1n[nH]c(=O)c2ccccc12)Nc1cccc(Br)c1 [T5717474],21.7,
Cc1cccc([N+]2=C3CCCCCN3C(O)(c3cccc([N+](=O)O)c3)C2)c1 (centres unmarked) [K404-0915],0,

Compound,Emax at 10 µM (primary astrocytes; [1]) [%],also measured
CN(C)Cc1cccc(CNc2ncnc3sccc23)c1 [T6783542],85.7,
Cc1cccc([N+]2=C3SCCCN3C(O)(c3ccc(OC(F)F)cc3)C2)c1 (centres unmarked) [K404-0400],36.3,
COc1ccc(C)cc1NS(=O)(=O)c1cc(-c2ccnn2C)cs1 [L924-0830],78.2,
O=C(NCc1ccccc1)NC1CCN(c2ncnc3c2CCC3)C1 (centres unmarked) [T636-1210],48.9,
Cc1ccc(CNS(=O)(=O)c2ccc3onc(C(=O)N4CCCCC4)c3c2)cc1 [L995-0386],18.8,
Cc1ccc(C(=O)N2CCCC(Nc3ncnc4c3CCC4)C2)cn1 (centres unmarked) [T636-2144],0,
O=C(c1noc2ccc(S(=O)(=O)Nc3cccc(F)c3)cc12)N1CCCC1 [L995-0058],42.3,
COc1ccc(C2(O)C[N+](c3cc(C)ccc3C)=C3SCCCN32)c(F)c1 (centres unmarked) [K404-0183],89.6,
Cn1nc(CC(=O)Nc2cccc(C(=O)NC3CC3)c2)c2ccccc2c1=O [T5543110],39.1,
COc1ccc(C2(O)C[N+](c3cc(C)ccc3C)=C3CCCCCN32)cc1OC (centres unmarked) [K404-0852],0,
CC(=O)N1CCCc2cc(S(=O)(=O)NCc3ccccc3)ccc21 [G855-0210],20.6,
Cc1oc2ncnc(N3CCCC(C(=O)NCc4ccccc4)C3)c2c1C (centres unmarked) [F228-0365],103,
CC(=O)c1cccc(NC(=O)C(C)Sc2ncnc3ccsc23)c1 (centres unmarked) [T5627721],72.4,
COc1ccccc1Nc1nc(N2CCOCC2)c2ccccc2n1 [F3007-0009],19.8,
CC(C)OCCCNc1ncnc2c1CCC2 [T636-0027],53.6,
COc1ccc(CN2CCN(c3ncnc4c3CCC4)CC2)cc1OC [T636-2007],102,
O=S(=O)(Nc1ccc2[nH]ncc2c1)c1ccc(C(F)(F)F)cc1 [T5653029],36.2,
Cc1cccc([N+]2=C3CCCCCN3C(O)(c3ccc([N+](=O)[O-])cc3)C2)c1 (centres unmarked) [K404-0914],0,
Cc1ccsc1C(=O)NC1CCN(c2ncnc3c2CCC3)C1 (centres unmarked) [T636-1114],72.5,
c1csc(C(Nc2ncnc3sccc23)C2CC2)c1 (centres unmarked) [T5713637],114,

Compound,Emax at 10 µM (primary astrocytes; [1]) [%],also measured
O=C(Cc1cccc(F)c1)N1CCC(Nc2ncnc3c2CCC3)C1 (centres unmarked) [T636-2360],44,
Cc1ccc([N+]2=C3CCCCCN3C(O)(c3ccc([N+](=O)[O-])cc3)C2)cc1 (centres unmarked) [K404-0828],0,
COc1ccc(C2SCCN2S(=O)(=O)c2ccc(C)c(C)c2)cc1OC (centres unmarked) [F1462-0491],27.2,
O=S(=O)(NC1CCN(c2ncnc3c2CCC3)C1)c1ccccc1 (centres unmarked) [T636-1250],96.4,
OC1(c2ccccc2)C[N+](c2ccc(Cl)cc2)=C2CCCCN21 (centres unmarked) [F0524-0488],51.2,
CCn1nccc1-c1csc(S(=O)(=O)Nc2cc(C)ccc2C)c1 [L924-0988],52.7,
CCCCOc1cc(C(=O)NCCN(CC)CC)c2ccccc2n1 [Dibucaine],,Emax at 10 µM (primary astrocytes; [2]): 6.12%; Emax at 10 µM (primary astrocytes; [3]): 6.1%
COc1ccc(OC)c([N+]2=C3CCCCCN3C(O)(c3ccc([N+](=O)[O-])cc3)C2)c1 (centres unmarked) [K404-0863],0,
COc1ccc(C2(O)C[N+](c3cccc(C)c3)=C3CCCCN32)cc1 (centres unmarked) [K404-0796],86.1,
CCC(=O)O[C@@H](O[P@](=O)(CCCCc1ccccc1)CC(=O)N1C[C@H](C2CCCCC2)C[C@H]1C(=O)O)C(C)C [Fosinopril],,Emax at 10 µM (primary astrocytes; [2]): 5.71%; Emax at 10 µM (primary astrocytes; [3]): 5.7%
O=S(=O)(Nc1ccc2[nH]ncc2c1)c1ccc(Cl)cc1F [T5436375],0,
O=C(NCc1cccc(F)c1)NC1CCN(c2ncnc3c2CCC3)C1 (centres unmarked) [T636-1243],45.5,
COc1cccc(-c2cc3n(n2)CCCN(Cc2ccncc2)C3)c1 [T202-0973],34.1,
Cc1ccc(F)cc1NC(=O)Cc1nn(C)c(=O)c2ccccc12 [T6302989],40.5,
COc1ccc(Cl)cc1S(=O)(=O)NCc1ccncc1 [F0376-0203],20.3,
COc1ccc(OC)c([N+]2=C3CCCCCN3C(O)(c3ccc(C)cc3)C2)c1 (centres unmarked) [K404-0855],58.5,
CN1CCC(OCCCNc2ncnc3c2CCC3)CC1 [T636-0181],22.8,
c1ccc(CN2CCC(Nc3ncnc4c3CCC4)CC2)nc1 [T636-1715],0,
CCc1ccc(S(=O)(=O)N2CCSC2c2ccc(OC)c(OC)c2)cc1 (centres unmarked) [4052-4304],49.4,
Cn1nccc1-c1csc(S(=O)(=O)Nc2ccc(F)cc2)c1 [L924-0760],69.1,
